Measurements from US20120095063A1, “METHODS AND COMPOSITIONS FOR TREATMENT OF ISCHEMIC CONDITIONS AND CONDITIONS RELATED TO MITOCHONDRIAL FUNCTION” (priority 2009, published 2012).

What was measured:
[1] = system: myocardial ischemia-reperfusion (IR) injury; test: Infarct size in rat model of myocardial ischemia-reperfusion (IR) injury; assay type: in vivo; settings: 45 min ischemia, Epi 0.5 mg/kg and/or Nico 33 f× g/kg IV, repeated low dose, infarct size 48 h after IR
Method: The general methods for the implementation of the rat myocardial IR model are detailed elsewhere. The total time of myocardial ischemia was 45 min Dx-EPI (3 mg/kg) was mixed in saline solution and given IV via the jugular vein. Control animals received dextran saline solution injections. Infarct size was examined 48 h after IR using established procedures.
The general methods for the implementation of the rat myocardial IR model are described herein. The total time of myocardial ischemia was 45 min Treatment was administered a total of 1, 2 or 3 times. The initial dose was given15 min prior to reperfusion and then at 12 (in the case of 2× and 3× dosing) and again at 24 h (in the case of 3× dosing) after reperfusion. Epi (0.5 mg/kg) and/or Nico (33 f× g/kg) were mixed in water and given IV using the jugular vein. Control animals only received water injections. Infarct size was examined 48 h after IR using established procedures.

[2] = system: human skeletal muscle myocytes (HSKM cells); test: Oxygen consumption rate in primary human skeletal muscle myocytes; assay type: cell-based; settings: 48 hours, 300 nM FCCP
Method: Measured endogenous rates of respiration reflect the net balance between rates of energy utilization, energy production, and mitochondrial uncoupling. This was followed by induction of resting (State 4o) respiration with the addition of 1 uM oligomycin to inhibit ATP synthase. State 4 respiration is primarily determined by the rate of proton leak across the inner mitochondrial membrane. Maximal respiration was then assessed by the addition of 300 nM FCCP, a chemical uncoupler of oxidative phosphorylation. In intact cells, this rate reflects the maximal rates of substrate oxidation and electron transport chain activity. An increase in maximal rates can reflect changes in the regulation or expression level of oxidative enzymes, electron transport chain components, or total mitochondrial mass. […] As a control, nonmitochondrial O2 consumption was measured after the addition of 100 nM rotenone and 100 nM myxothiazol to completely block the respiratory chain.
Respiration of the intact cells was measured in unbuffered DMEM containing 10 mM glucose, 10 mM pyruvate, and 2 mM glutamine. In panel A, endogenous respiration was measured on HSKM cells, followed by state 4 (resting) respiration with the addition of 1 uM oligomycin (indicated as ‘A’), and then maximal rates were measured after the addition of 300 nM FCCP, a chemical uncoupler (indicated as ‘B’). […]

[3] = system: mitochondrial swelling (damage) induced by high calcium; test: Calcium-induced mitochondrial swelling, EPI and NICO co-treatment, isobolographic analysis; assay type: biochemical; settings: rat left ventricle mitochondria; 33 μM CaCl2; 535 nm, 30 min
Method: To determine the effect that (-)-epicatechin (EPI) and nicorandil (NICO) co-treatment has on mitochondrial swelling (damage) induced by high calcium, EPI or NICO, and EPI+NICO protective effects against calcium induced mitochondrial damage (swelling), were evaluated by monitoring changes in optical density (OD, light absorbance): Hearts from male rats were excised and weighed. Left ventricles were homogenized (0.1 g/mL) in solution A (Sucrose 2M, EDTA 0.01M, Hepes 0.5M: pH=7.4), centrifuged 10 min (800×g), 4° C., the supernatant was centrifuged 10 min (8000×g), 4° C. and the pellet was re-suspended in solution B (Sucrose 2M, EDTA 0.01M, Tris 0.5M-H2PO4-50 mM: pH=7.4) and centrifuged 10 min (10000×g), 4° C. Pellet was re-suspended in 10 mL of solution C (Sucrose 2M, EDTA 0.01M, Tris 0.5M-H2PO4-50 mM, Succinate 1M: pH=7.4. 33 μM of CaCl2 was then, added in order to induce mitochondrial […] (swelling measured through absorbace changes at 535 nm, monitored continuosly during 30 min Dose-response effects on mitochondrial swelling to EPI and NICO treatment were pursued.

[4] = system: electron transport chain proteins; test: Western blot of mitochondrial electron transport chain proteins in C2C12 cells; assay type: cell-based, mouse; settings: 1 μM, 48 hours
From the text: Western blots of cell lysates were used to assess levels of mitochondrial to determine if improved respiration is due to enhanced mitochondrial biogenesis.

| Molecule | reduction of infarct size vs. controls [1] [%] | stimulating mitochondrial function (maximal, uncoupler-stimulated respiration) [2] | effect on calcium-induced mitochondrial damage (swelling) [3] | expression level of the 20 kDa subunit of complex I [4] |
| --- | --- | --- | --- | --- |
| O=C(NCCO[N+](=O)[O-])c1cccnc1 [nicorandil, N-[2-(Nitroxy)ethyl]-3-pyridinecarboxamide] | 37 | active | can limit | – |
| Oc1cc(O)c2c(c1)O[C@H](c1ccc(O)c(O)c1)[C@H](O)C2 [Epicatechin, (−)-epicatechin] | 27 | – | – | – |
| catechin | – | active | – | clearly increased |
